Data on two compounds can be found in ChEMBL document CHEMBL1141936, “Structural basis for the GSK-3beta binding affinity and selectivity against CDK-2 of 1-(4-aminofurazan-3yl)-5-dialkylaminomethyl-1H-[1,2,3] triazole-4-carboxylic acid derivatives” (Bioorg Med Chem Lett, 2005).

pIC50: −log10 of the molar value. Some results are limits rather than exact numbers.

Assay [1] addresses Glycogen synthase kinase-3 beta (Homo sapiens, UniProt P49841). In words: Inhibitory activity against GSK3-beta.
The target in assay [2] is Cyclin-dependent kinase 2 (Homo sapiens, UniProt P24941). In words: Inhibitory activity against CDK2.

Glycogen synthase kinase-3 beta, sequence (P49841 whole entry): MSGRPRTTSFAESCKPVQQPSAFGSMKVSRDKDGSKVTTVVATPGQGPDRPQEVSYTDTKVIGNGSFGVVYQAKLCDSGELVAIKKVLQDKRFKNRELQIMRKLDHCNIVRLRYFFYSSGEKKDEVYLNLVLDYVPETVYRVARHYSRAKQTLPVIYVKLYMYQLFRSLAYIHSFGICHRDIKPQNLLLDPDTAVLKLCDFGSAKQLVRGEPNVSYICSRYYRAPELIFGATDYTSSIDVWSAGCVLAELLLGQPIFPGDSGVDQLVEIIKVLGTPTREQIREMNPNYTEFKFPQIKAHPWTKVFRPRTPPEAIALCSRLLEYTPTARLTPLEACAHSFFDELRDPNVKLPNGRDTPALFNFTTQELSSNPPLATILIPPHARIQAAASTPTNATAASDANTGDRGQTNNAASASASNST

Take `NC1=NONC1N1N=NC(C(=O)N/N=C/c2ccncc2)C1CN1CCCCC1` (centres undefined): the pIC50 is 7.00 in assay [1] and 4.02 in assay [2].

`NC1=NONC1N1N=NC(c2nnc(-c3ccncc3)[nH]2)C1CN1CCCCC1` (centres undefined): the pIC50 is 6.55 in assay [1] and less than 3.60 in assay [2].

Usually pIC50 stands for the IC50 on a negative log10 scale, so that one unit is a factor of ten.
